Measurements from ChEMBL document CHEMBL5620394, “Synthesis of new antiproliferative 1,3,4-substituted-pyrrolo[3,2-c]quinoline derivatives, biological and in silico insights” (Eur J Med Chem, 2023).
Activity calls are given as the source filed them. The rule behind the calls is not given here.

Experiments:
SNB-75 = assay: Antiproliferative activity against human SNB-75 cells assessed as cell growth at 10 uM incubated for 48 hrs by sulforhodamine B assay relative to control; assay type: functional; conditions: read-out: Activity
NCI-H522 = assay: Antiproliferative activity against human NCI-H522 cells assessed as cell growth at 10 uM incubated for 48 hrs by sulforhodamine B assay relative to control; assay type: functional; conditions: read-out: Activity
CCRF-CEM = assay: Antiproliferative activity against human CCRF-CEM cells assessed as cell growth at 10 uM incubated for 48 hrs by sulforhodamine B assay relative to control; assay type: functional; conditions: read-out: Activity
MDA-MB-231 = assay: Antiproliferative activity against human MDA-MB-231 cells assessed as cell growth at 10 uM incubated for 48 hrs by sulforhodamine B assay relative to control; assay type: functional; conditions: read-out: Activity
MCF7 [1] = assay: Antiproliferative activity against human MCF7 cells assessed as cell growth at 10 uM incubated for 48 hrs by sulforhodamine B assay relative to control; assay type: functional; conditions: read-out: Activity
UACC-257 = assay: Antiproliferative activity against human UACC-257 cells assessed as cell growth at 10 uM incubated for 48 hrs by sulforhodamine B assay relative to control; assay type: functional; conditions: read-out: Activity
K562 = assay: Antiproliferative activity against human K562 cells assessed as cell growth at 10 uM incubated for 48 hrs by sulforhodamine B assay relative to control; assay type: functional; conditions: read-out: Activity
T47D = assay: Antiproliferative activity against human T47D cells assessed as cell growth at 10 uM incubated for 48 hrs by sulforhodamine B assay relative to control; assay type: functional; conditions: read-out: Activity
HeLa [2] = assay: Antiproliferative activity against human HeLa cells assessed as inhibition of cell growth incubated for 4 hrs by MTS assay; assay type: functional
MOLT-4 = assay: Antiproliferative activity against human MOLT-4 cells assessed as cell growth at 10 uM incubated for 48 hrs by sulforhodamine B assay relative to control; assay type: functional; conditions: read-out: Activity
LA-N-5 [3] = assay: Antiproliferative activity against human LA-N-5 cells assessed as inhibition of cell growth at 10 uM incubated for 4 hrs by MTS assay; assay type: functional, cell-based
[4] = Antiproliferative activity against human 16HBE14o- cells assessed as inhibition of cell growth incubated for 4 hrs by MTS assay; assay type: toxicity, cell-based; conditions: read-out: IG50
RPMI-8226 = assay: Antiproliferative activity against human RPMI-8226 cells assessed as cell growth at 10 uM incubated for 48 hrs by sulforhodamine B assay relative to control; assay type: functional; conditions: read-out: Activity
MCF7 [5] = assay: Antiproliferative activity against human MCF7 cells assessed as inhibition of cell growth at >50 uM incubated for 4 hrs by MTS assay; assay type: functional, cell-based
UO-31 = assay: Antiproliferative activity against human UO-31 cells assessed as cell growth at 10 uM incubated for 48 hrs by sulforhodamine B assay relative to control; assay type: functional; conditions: read-out: Activity
SR = assay: Antiproliferative activity against human SR cells assessed as cell growth at 10 uM incubated for 48 hrs by sulforhodamine B assay relative to control; assay type: functional; conditions: read-out: Activity
HL-60 = assay: Antiproliferative activity against human HL-60 cells assessed as cell growth at 10 uM incubated for 48 hrs by sulforhodamine B assay relative to control; assay type: functional; conditions: read-out: Activity
LA-N-5 [6] = assay: Antiproliferative activity against human LA-N-5 cells assessed as reduction in cell growth at 10 to 100 uM incubated for 4 hrs by MTS assay; assay type: functional, cell-based; conditions: dose 10-100 µM
NCI-H226 = assay: Antiproliferative activity against human NCI-H226 cells assessed as cell growth at 10 uM incubated for 48 hrs by sulforhodamine B assay relative to control; assay type: functional; conditions: read-out: Activity
UACC-62 = assay: Antiproliferative activity against human UACC-62 cells assessed as cell growth at 10 uM incubated for 48 hrs by sulforhodamine B assay relative to control; assay type: functional; conditions: read-out: Activity
CAKI-1 = assay: Antiproliferative activity against human CAKI-1 cells assessed as cell growth at 10 uM incubated for 48 hrs by sulforhodamine B assay relative to control; assay type: functional; conditions: read-out: Activity
NCI-H292 = assay: Antiproliferative activity against human NCI-H292 cells assessed as inhibition of cell growth at >50 uM incubated for 4 hrs by MTS assay; assay type: functional, cell-based
MCF7 [7] = assay: Antiproliferative activity against human MCF7 cells assessed as inhibition of cell growth incubated for 4 hrs by MTS assay; assay type: functional
786-0 = assay: Antiproliferative activity against human 786-0 cells assessed as cell growth at 10 uM incubated for 48 hrs by sulforhodamine B assay relative to control; assay type: functional; conditions: read-out: Activity
HeLa [8] = assay: Antiproliferative activity against human HeLa cells assessed as inhibition of cell growth at >50 uM incubated for 4 hrs by MTS assay; assay type: functional, cell-based
PC-3 = assay: Antiproliferative activity against human PC-3 cells assessed as cell growth at 10 uM incubated for 48 hrs by sulforhodamine B assay relative to control; assay type: functional; conditions: read-out: Activity
[9] = Antiproliferative activity against human LA-N-5 cells assessed as inhibition of cell growth incubated for 4 hrs by MTS assay; assay type: functional
HT-29 = assay: Antiproliferative activity against human HT-29 cells assessed as cell growth at 10 uM incubated for 48 hrs by sulforhodamine B assay relative to control; assay type: functional; conditions: read-out: Activity

What does the source list for `CCn1c(C)c(C(C)=O)c2c(-c3ccccc3)nc3ccccc3c21`?
growth at 10 µM (SNB-75): 85.1%; growth at 10 µM (NCI-H522): 92.6%; growth at 10 µM (CCRF-CEM): 88.5%; growth at 10 µM (MDA-MB-231): 91.1%; growth at 10 µM (MCF7 [1]): 93.6%; growth at 10 µM (UACC-257): 93.3%; growth at 10 µM (K562): 99.2%; growth at 10 µM (T47D): 87%; IG50 (HeLa [2]): 10 µM; growth at 10 µM (MOLT-4): 95.2%; Activity (LA-N-5 [3]): Active; GI50 at 4 h [4]: 10 µM; growth at 10 µM (RPMI-8226): 79.6%; Activity (MCF7 [5]): Active; growth at 10 µM (UO-31): 82.5%; growth at 10 µM (SR): 91.7%; growth at 10 µM (HL-60): 100%; Activity (LA-N-5 [6]): Active; growth at 10 µM (NCI-H226): 68.3%; growth at 10 µM (UACC-62): 88.9%; growth at 10 µM (CAKI-1): 93.8%; Activity (NCI-H292): Active; IG50 (MCF7 [7]): 10 µM; growth at 10 µM (786-0): 98.8%; Activity (HeLa [8]): Active; growth at 10 µM (PC-3): 80.5%; IG50 [9]: 1 µM; growth at 10 µM (HT-29): 108%
